Experimental data published in PubChem BioAssay AID248 (DTP/NCI, 2004).
Values joined by “and” are separate entries in the source; they are usually repeats but may differ in a detail not shown here. Identical values can stand only once. Inconclusive results and toxic doses are left out.

Tested on: L1210 leukemia ip in BDF1 mice, survival T/C
Test: NCI In Vivo Anticancer Drug Screen. Data for tumor model L1210 Leukemia (intraperitoneal) in B6D2F1 (BDF1) mice
Conditions: endpoint: mean survival time, higher = longer survival
Outline: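 Each compound was tested against a transplantable tumor grown in mice. The endpoint was survival, with treated animals benchmarked against vehicle controls as a simple ratio.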

[1] = dose: 100.0 mg/kg/injection, schedule: Q04DX003 (ip), vehicle: saline with Tween-80
[2] = dose: 200.0 mg/kg/injection, schedule: Q04DX003 (ip), vehicle: saline with Tween-80
[3] = dose: 400.0 mg/kg/injection, schedule: Q04DX003 (ip), vehicle: saline with Tween-80
[4] = dose: 100.0 mg/kg/injection, schedule: Q01DX009 (ip), vehicle: saline with Tween-80
[5] = dose: 200.0 mg/kg/injection, schedule: Q01DX009 (ip), vehicle: saline with Tween-80
[6] = dose: 400.0 mg/kg/injection, schedule: Q01DX009 (ip), vehicle: saline with Tween-80
[7] = dose: 50.0 mg/kg/injection, schedule: Q01DX009 (ip), vehicle: saline with Tween-80

Compound: COCCCN=C(N)c1ccc(NC(=O)c2ccc(C(=O)Nc3ccc(C(N)=NCCCOC)cc3)cc2)cc1
- T/C (dose: 0.75 mg/kg/injection, schedule: Q01DX Z (ip), vehicle: saline): 114 % of control
- T/C (dose: 1.0 mg/kg/injection, schedule: Q01DX006 (iv), vehicle: saline): 106 % of control
- T/C (dose: 1.0 mg/kg/injection, schedule: Q01DX Z (ip), vehicle: saline): 119 % of control
- T/C (dose: 1.0 mg/kg/injection, schedule: Q01DX Z (sc), vehicle: saline): 102 % of control
- T/C (dose: 1.0 mg/kg/injection, schedule: Q02DX004 (im), vehicle: saline): 96 % of control
- T/C (dose: 2.0 mg/kg/injection, schedule: Q01DX006 (iv), vehicle: saline): 98 % of control
- T/C (dose: 2.0 mg/kg/injection, schedule: Q01DX Z (sc), vehicle: saline): 90 % of control
- T/C (dose: 2.0 mg/kg/injection, schedule: Q02DX004 (im), vehicle: saline): 107 % of control
- T/C (dose: 3.0 mg/kg/injection, schedule: Q01DX Z (ip), vehicle: saline): 156 % of control and 183 % of control
- T/C (dose: 4.0 mg/kg/injection, schedule: Q01DX006 (iv), vehicle: saline): 122 % of control
- T/C (dose: 4.0 mg/kg/injection, schedule: Q01DX Z (ip), vehicle: saline): 223 % of control
- T/C (dose: 4.0 mg/kg/injection, schedule: Q01DX Z (sc), vehicle: saline): 154 % of control
- T/C (dose: 4.0 mg/kg/injection, schedule: Q02DX004 (im), vehicle: saline): 106 % of control
- T/C (dose: 6.0 mg/kg/injection, schedule: Q01DX Z (ip), vehicle: saline): 269 % of control
- T/C (dose: 6.0 mg/kg/injection, schedule: Q01DX Z (oral), vehicle: saline): 97 % of control
- T/C (dose: 8.0 mg/kg/injection, schedule: Q01DX006 (iv), vehicle: saline): 189 % of control
- T/C (dose: 8.0 mg/kg/injection, schedule: Q01DX Z (sc), vehicle: saline): 158 % of control
- T/C (dose: 12.0 mg/kg/injection, schedule: Q01DX Z (oral), vehicle: saline): 100 % of control
- T/C (dose: 15.0 mg/kg/injection, schedule: Q01DX Z (ip), vehicle: saline): 115 % of control
- T/C (dose: 16.0 mg/kg/injection, schedule: Q01DX Z (ip), vehicle: saline): 112 % of control
- T/C (dose: 16.0 mg/kg/injection, schedule: Q01DX Z (sc), vehicle: saline): 116 % of control
- T/C (dose: 16.0 mg/kg/injection, schedule: Q02DX004 (im), vehicle: saline): 154 % of control
- T/C (dose: 24.0 mg/kg/injection, schedule: Q01DX Z (oral), vehicle: saline): 102 % of control
- T/C (dose: 32.0 mg/kg/injection, schedule: Q02DX004 (im), vehicle: saline): 118 % of control
- T/C (dose: 48.0 mg/kg/injection, schedule: Q01DX Z (oral), vehicle: saline): 100 % of control
- T/C (dose: 62.5 mg/kg/injection, schedule: Q## X010 (oral), vehicle: saline): 96 % of control
- T/C (dose: 250.0 mg/kg/injection, schedule: Q## X010 (oral), vehicle: saline): 119 % of control

Compound: Cn1cnc([N+](=O)[O-])c1[Se]c1ncnc2c1ncn2C1OC(CO)C(O)C1O (stereo not given)
- T/C (dose: 12.5 mg/kg/injection, schedule: Q01DX005 (ip), vehicle: saline): 104 % of control
- T/C (dose: 25.0 mg/kg/injection, schedule: Q01DX005 (ip), vehicle: saline): 98 % of control

Compound: O=C1OC2CCC3C1C3C2Br (stereo not given)
- T/C (dose: 25.0 mg/kg/injection, schedule: Q01DX009 (ip), vehicle: acetone): 92 % of control

Compound: Cc1ccc([N+](=O)[O-])cc1NC(=O)Nc1ccccc1F
- T/C (dose: 100.0 mg/kg/injection, schedule: Q01DX009 (ip), vehicle: Klucel (hydroxypropylcellulose) (HPC)): 89 % of control
- T/C (dose: 200.0 mg/kg/injection, schedule: Q01DX009 (ip), vehicle: Klucel (hydroxypropylcellulose) (HPC)): 92 % of control
- T/C (dose: 400.0 mg/kg/injection, schedule: Q01DX009 (ip), vehicle: Klucel (hydroxypropylcellulose) (HPC)): 87 % of control

Compound: CCN(CC)CC(O)c1ccnc2c(N)cc(OC)cc12 (stereo not given)
- T/C (dose: 75.0 mg/kg/injection, schedule: Q01DX001 (ip), vehicle: acetone): 104 % of control
- T/C (dose: 150.0 mg/kg/injection, schedule: Q01DX001 (ip), vehicle: acetone): 101 % of control

Compound: O=P(O)(O)Cc1cccc2ccccc12
- T/C (dose: 100.0 mg/kg/injection, schedule: Q04DX003 (ip), vehicle: Klucel (hydroxypropylcellulose) (HPC)): 92 % of control
- T/C [1]: 96 % of control
- T/C (dose: 200.0 mg/kg/injection, schedule: Q04DX003 (ip), vehicle: Klucel (hydroxypropylcellulose) (HPC)): 89 % of control
- T/C [2]: 96 % of control
- T/C [3]: 96 % of control

Compound: CC(=O)[C@H]1CC[C@H]2[C@@H]3CCC4=CC(=O)[C@H](C)C[C@]4(C)[C@H]3C(=O)C[C@]12C
- T/C (dose: 200.0 mg/kg/injection, schedule: Q01DX001 (sc), vehicle: steriod suspending solution): 98 % of control
- T/C (dose: 200.0 mg/kg/injection, schedule: Q01DX009 (sc), vehicle: steriod suspending solution): 100 % of control
- T/C (dose: 400.0 mg/kg/injection, schedule: Q01DX001 (sc), vehicle: steriod suspending solution): 104 % of control
- T/C (dose: 400.0 mg/kg/injection, schedule: Q01DX009 (sc), vehicle: steriod suspending solution): 100 % of control
- T/C (dose: 600.0 mg/kg/injection, schedule: Q01DX001 (sc), vehicle: steriod suspending solution): 96 % of control
- T/C (dose: 600.0 mg/kg/injection, schedule: Q01DX009 (sc), vehicle: steriod suspending solution): 92 % of control
- T/C (dose: 800.0 mg/kg/injection, schedule: Q01DX001 (sc), vehicle: steriod suspending solution): 96 % of control
- T/C (dose: 800.0 mg/kg/injection, schedule: Q01DX009 (sc), vehicle: steriod suspending solution): 92 % of control

Compound: O=C(O)c1ccc([N+](=O)[O-])cc1OCc1ccccc1
- T/C (dose: 100.0 mg/kg/injection, schedule: Q01DX001 (ip), vehicle: other): 103 % of control
- T/C (dose: 200.0 mg/kg/injection, schedule: Q01DX001 (ip), vehicle: other): 95 % of control
- T/C (dose: 400.0 mg/kg/injection, schedule: Q01DX001 (ip), vehicle: other): 97 % of control

Compound: COc1ccc(N2CCN(c3c(N)cnc4ccccc34)CC2)c(OC)c1
- T/C (dose: 100.0 mg/kg/injection, schedule: Q01DX001 (ip), vehicle: carboxymethylcellulose (CMC)): 97 % of control
- T/C (dose: 200.0 mg/kg/injection, schedule: Q01DX001 (ip), vehicle: carboxymethylcellulose (CMC)): 103 % of control
- T/C (dose: 400.0 mg/kg/injection, schedule: Q01DX001 (ip), vehicle: carboxymethylcellulose (CMC)): 97 % of control

Compound: C/C(=N\N1CCCCC1)c1ccc(NC(=O)C(Cl)Cl)cc1
- T/C [4]: 106 % of control
- T/C [5]: 97 % of control
- T/C [6]: 89 % of control

Compound: CCCCCOC(=O)Nc1cccc(OC(=O)NC)c1
- T/C [4]: 105 % of control
- T/C [5]: 96 % of control
- T/C [6]: 97 % of control

Compound: Sc1ccccc1
- T/C [1]: 92 % of control
- T/C [2]: 99 % of control
- T/C [3]: 94 % of control

Compound: CCNC(C)(C)C(SSS)c1cccs1 (stereo not given)
- T/C (dose: 100.0 mg/kg/injection, schedule: Q01DX009 (ip), vehicle: saline sonified): 96 % of control
- T/C (dose: 100.0 mg/kg/injection, schedule: Q04DX003 (ip), vehicle: saline sonified): 91 % of control
- T/C (dose: 200.0 mg/kg/injection, schedule: Q01DX009 (ip), vehicle: saline sonified): 94 % of control
- T/C (dose: 200.0 mg/kg/injection, schedule: Q04DX003 (ip), vehicle: saline sonified): 87 % of control
- T/C (dose: 400.0 mg/kg/injection, schedule: Q01DX009 (ip), vehicle: saline sonified): 88 % of control
- T/C (dose: 400.0 mg/kg/injection, schedule: Q04DX003 (ip), vehicle: saline sonified): 89 % of control

Compound: N/C(Cc1ccc(N)cc1)=N\O
- T/C (dose: 25.0 mg/kg/injection, schedule: Q01DX009 (ip), vehicle: saline with Tween-80): 97 % of control
- T/C [7]: 101 % of control
- T/C [4]: 95 % of control

Compound: CC(=O)OC1CCC2(C)C(=CC=C3C2CCC2(C)C3CC(OC(C)=O)C2C(C)C2CCC(C)CN2C(C)=O)C1 (stereo not given)
- T/C [7]: 91 % of control
- T/C [4]: 91 % of control

Compound: CCCCNC(=O)NC(=O)C(C)(C)Oc1ccc(Cl)cc1
- T/C (dose: 50.0 mg/kg/injection, schedule: Q01DX009 (ip), vehicle: saline): 103 % of control
- T/C (dose: 100.0 mg/kg/injection, schedule: Q01DX009 (ip), vehicle: saline): 103 % of control
- T/C (dose: 200.0 mg/kg/injection, schedule: Q01DX009 (ip), vehicle: saline): 95 % of control

Compound: CC(=O)OCC1OC(n2cc(C)c(=O)[nH]c2=O)CC1OC(C)=O (stereo not given)
- T/C (dose: 684.0 mg/kg/injection, schedule: Q02DX010 (ip), vehicle: other): 99 % of control
- T/C (dose: 1368.0 mg/kg/injection, schedule: Q02DX010 (ip), vehicle: other): 105 % of control
- T/C (dose: 2052.0 mg/kg/injection, schedule: Q02DX010 (ip), vehicle: other): 96 % of control
